The target of one assay is BRD4 (His-Brd4(44-477)) (Homo sapiens (Human), UniProt O60885). Briefly: TR-FRET in-vitro binding assay for BRD4. As to conditions: single determination or n ≧ 2 independent determinations, read-out: Biochemical IC50 BRD4. An outline of the steps:
(§1)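 In this TR-FRET format, each compound was tested as an 8-point dilution series, single point per concentration, dispensed from 90% DMSO solution. Incubation lasted 35 minutes at 30° C.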

For assay [1], the target named is CREBBP bromodomain (His-CREBBP(1081-1197)) (Homo sapiens (Human), UniProt Q92793). Briefly: AlphaScreen in-vitro binding assay for CREBBP. The note with it: single determination or n ≧ 2 independent determinations, read-out: Biochemical IC50 CREBBP. An outline of the steps:
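Detection used nickel-chelate acceptor plus streptavidin donor AlphaScreen beads, 1 h room temperature. Percent inhibition fitted by non-linear regression to IC50.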

Another assay deals with MV-4-11 cells. Kind of assay: Cell growth inhibition assay (CellTiter-Glo), MV-4-11.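 As to all read-outs here: cellular ATP luminescence after 4 days, 3-fold dilution series from 10 µM top dose, vehicle (0.1% DMSO) set to 100%, cell-free medium set to −100%, day 0 corrected.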 As to conditions: for GI50: Homo sapiens, MV4-11, read-out: MV-4-11 GI50; for MV-4-11 TGI: MV-4-11 cells, total growth inhibition, CellTiter-Glo.
The next assay addresses BRD3 (His-Brd3(20-477)) (Homo sapiens (Human), UniProt Q15059). Kind of assay: TR-FRET in-vitro binding assay for BRD3. The note with it: single determination or n ≧ 2 independent determinations, read-out: Biochemical IC50 BRD3. A digest of the protocol: as §1
Assay [2] has as its target nuclear BRD4-NUT foci in HCC2494 NUT midline carcinoma cells (Homo sapiens, UniProt O60885). Briefly: cell-based.
In another assay the test system is THP-1 cells. Briefly: Cell growth inhibition assay (CellTiter-Glo), THP-1.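 As to all read-outs here: viability read as cellular ATP luminescence after 4 days, 3-fold dilution series from 10 µM, DMSO vehicle-treated cells taken as 100%, cell-free medium wells as −100%.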 The note with it: for GI50: Homo sapiens, THP-1, read-out: THP-1 GI50; for THP-1 TGI: THP-1 cells, total growth inhibition, CellTiter-Glo.
A further assay deals with BRD2 (His-Brd2(60-472)) (Homo sapiens (Human), UniProt P25440). Kind of assay: TR-FRET in-vitro binding assay for BRD2. As to conditions: single determination or n ≧ 2 independent determinations, read-out: Biochemical IC50 BRD2. An outline of the steps: as §1
Sequence of BRD2 (His-Brd2(60-472)) (P25440 60-472): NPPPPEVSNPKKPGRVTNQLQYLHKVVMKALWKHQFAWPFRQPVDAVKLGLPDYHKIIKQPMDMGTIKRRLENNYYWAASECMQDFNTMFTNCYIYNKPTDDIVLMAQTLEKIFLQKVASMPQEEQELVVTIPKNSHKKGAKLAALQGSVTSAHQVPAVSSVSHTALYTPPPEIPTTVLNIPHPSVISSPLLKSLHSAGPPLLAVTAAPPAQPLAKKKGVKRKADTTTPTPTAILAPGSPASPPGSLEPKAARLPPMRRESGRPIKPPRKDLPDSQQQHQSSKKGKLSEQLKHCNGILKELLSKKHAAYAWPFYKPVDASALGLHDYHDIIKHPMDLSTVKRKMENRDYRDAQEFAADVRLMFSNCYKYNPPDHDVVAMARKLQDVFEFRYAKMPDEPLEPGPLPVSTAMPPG
The subject of another assay is K-562 cells. Briefly: Cell growth inhibition assay (CellTiter-Glo), K-562.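 As to all read-outs here: cellular ATP measured by luminescence after 4 days of exposure, 3-fold dilution series from 10 µM, DMSO vehicle-treated cells define 100%, cell-free medium wells −100%.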 As to conditions: for GI50: Homo sapiens, K562, read-out: K-562 GI50; for K-562 TGI: K-562 cells, total growth inhibition, CellTiter-Glo.

Sequence of BRD3 (His-Brd3(20-477)) (Q15059 20-477): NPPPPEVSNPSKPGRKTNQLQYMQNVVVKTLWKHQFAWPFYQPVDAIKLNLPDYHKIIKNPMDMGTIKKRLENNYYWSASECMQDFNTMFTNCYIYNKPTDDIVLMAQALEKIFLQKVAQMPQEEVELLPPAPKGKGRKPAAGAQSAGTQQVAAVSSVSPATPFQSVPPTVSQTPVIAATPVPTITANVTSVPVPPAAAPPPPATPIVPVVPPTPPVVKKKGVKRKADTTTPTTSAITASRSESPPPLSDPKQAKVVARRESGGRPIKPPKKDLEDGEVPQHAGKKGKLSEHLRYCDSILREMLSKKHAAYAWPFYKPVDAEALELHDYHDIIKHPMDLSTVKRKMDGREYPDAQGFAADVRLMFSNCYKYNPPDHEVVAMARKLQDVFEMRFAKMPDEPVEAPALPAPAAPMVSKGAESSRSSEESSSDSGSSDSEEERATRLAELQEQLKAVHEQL
Sequence of CREBBP bromodomain (His-CREBBP(1081-1197)) (Q92793 1081-1197): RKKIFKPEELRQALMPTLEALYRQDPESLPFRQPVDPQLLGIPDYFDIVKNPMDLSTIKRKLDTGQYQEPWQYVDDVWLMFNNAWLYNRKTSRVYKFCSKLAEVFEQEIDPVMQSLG

With `Cc1cc(N2C(=O)c3nc(C4CC4)n(C(C)C)c3C2c2ccc(Cl)cc2)cn2c(C)nnc12` (racemic) [Example 13, 6-(4-chlorophenyl)-2-cyclopropyl-5-(3,8-dimethyl-[1,2,4]triazolo[4,3-a]pyridin-6-yl)-1-isopropyl-5,6-dihydropyrrolo[3,4-d]imidazol-4(1H)-one], the IC50 at BRD4 (His-Brd4(44-477)) was determined as 37 nM; in assay [1], 4500 nM; on BRD3 (His-Brd3(20-477)), 39 nM; in assay [2], 16.1 nM; on BRD2 (His-Brd2(60-472)), 41 nM. Also, the 50% growth inhibitory concentration (GI50) with MV-4-11 cells worked out at 11.3 nM; in the assay with THP-1 cells, 26.1 nM; in the assay with K-562 cells it was 114 nM. Besides, the “MV-4-11 TGI” value in the assay with MV-4-11 cells was found to be 27.15 nM. In the assay with THP-1 cells, the “THP-1 TGI” value was 59.45 nM. In addition, the “K-562 TGI” value in the assay with K-562 cells was above 10000 nM.
On to `Cc1cc(N2C(=O)c3nc(-c4nccs4)n(C4CC4)c3C2c2ccc(Cl)cc2)cn(C)c1=O` (stereo not drawn) [Example 43, 6-(4-chlorophenyl)-1-cyclopropyl-5-(1,5-dimethyl-6-oxo-1,6-dihydropyridin-3-yl)-2-(thiazol-2-yl)-5,6-dihydropyrrolo[3,4-d]imidazol-4(1H)-one], for which the half-inhibitory concentration (IC50) at BRD4 (His-Brd4(44-477)) amounted to 64 nM; in assay [1], 32300 nM; at BRD3 (His-Brd3(20-477)), 55 nM; in assay [2], 52.9 nM; on BRD2 (His-Brd2(60-472)), 59.5 nM. Also, the concentration for 50% growth inhibition (GI50) with MV-4-11 cells stood at 66.2 nM; in the assay on THP-1 cells it was 90.5 nM; with K-562 cells, 356 nM. For the same compound, in the assay with MV-4-11 cells, the “MV-4-11 TGI” value came out at 99.55 nM. The “THP-1 TGI” value in the assay on THP-1 cells turned out to be 162.5 nM. Moreover, the “K-562 TGI” value with K-562 cells is above 10000 nM.
On to `COc1ccc(-c2nc3c(n2C)C(=O)N(c2cc(C)c(=O)n(C)c2)[C@@H]3c2ccc(Cl)cc2)cn1` [Example 7, (R)-6-(4-chlorophenyl)-5-(1,5-dimethyl-6-oxo-1,6-dihydropyridin-3-yl)-2-(6-methoxypyridin-3-yl)-3-methyl-5,6-dihydropyrrolo[3,4-d]imidazol-4(3H)-one], for which the IC50 was 56 nM at BRD4 (His-Brd4(44-477)); 1500 nM in assay [1]; 48 nM on BRD3 (His-Brd3(20-477)); 73.5 nM in assay [2]; 60 nM at BRD2 (His-Brd2(60-472)). The figures for the GI50 with MV-4-11 cells, in the assay with THP-1 cells and with K-562 cells were 44.6 nM, 65.5 nM and 170 nM, respectively. In addition, in the assay on MV-4-11 cells, the “MV-4-11 TGI” value turned out to be 85 nM. Also, the “THP-1 TGI” value in the assay on THP-1 cells turned out to be 111 nM. The “K-562 TGI” value in the assay on K-562 cells was above 10000 nM.
Regarding `COc1ccc(-c2nc3c([nH]2)[C@@H](c2ccc(Cl)cc2)N(c2cc(C)c(=O)n(C)c2)C3=O)cn1` [Example 5, (R)-6-(4-chlorophenyl)-5-(1,5-dimethyl-6-oxo-1,6-dihydropyridin-3-yl)-2-(6-methoxypyridin-3-yl)-5,6-dihydropyrrolo[3,4-d]imidazol-4(1H)-one], the concentration for half-maximal inhibition (IC50) was 30 nM at BRD4 (His-Brd4(44-477)); 560 nM in assay [1]; 38 nM on BRD3 (His-Brd3(20-477)); 67 nM in assay [2]; 32 nM on BRD2 (His-Brd2(60-472)). For the same compound, the GI50 in the assay on MV-4-11 cells was found to be 37.1 nM; in the assay on THP-1 cells it was 60 nM; in the assay on K-562 cells it was 221 nM. For the same compound, the “MV-4-11 TGI” value in the assay with MV-4-11 cells was found to be 73.9 nM. For the same compound, in the assay on THP-1 cells, the “THP-1 TGI” value came to 106 nM. In the assay with K-562 cells, the “K-562 TGI” value was above 10000 nM.
As for `Cc1cc(N2C(=O)c3nc(C4=CCOC4)n(C(C)C)c3C2c2ccc(Cl)cc2)cn2c(C)nnc12` (stereo not drawn) [Example 11, 6-(4-chlorophenyl)-2-(2,5-dihydrofuran-3-yl)-5-(3,8-dimethyl-[1,2,4]triazolo[4,3-a]pyridin-6-yl)-1-isopropyl-5,6-dihydropyrrolo[3,4-d]imidazol-4(1H)-one], the IC50 on BRD4 (His-Brd4(44-477)) came to 18 nM; in assay [1] it was 5700 nM; at BRD3 (His-Brd3(20-477)), 25 nM; in assay [2], 110 nM; on BRD2 (His-Brd2(60-472)) it was 41 nM. The GI50 in the assay with MV-4-11 cells is 48.5 nM; in the assay on THP-1 cells, 90.9 nM; in the assay on K-562 cells, 330 nM. In the assay on MV-4-11 cells, the “MV-4-11 TGI” value was 97.75 nM. Besides, in the assay with THP-1 cells, the “THP-1 TGI” value is 202.5 nM. Moreover, the “K-562 TGI” value with K-562 cells is above 10000 nM.
For `COc1ccc(-c2nc3c(n2C)C(c2ccc(Cl)cc2)N(c2cc(C)c4nnc(C)n4c2)C3=O)cn1` (stereo not drawn) [Example 16, 6-(4-chlorophenyl)-5-(3,8-dimethyl-[1,2,4]triazolo[4,3-a]pyridin-6-yl)-2-(6-methoxypyridin-3-yl)-1-methyl-5,6-dihydropyrrolo[3,4-d]imidazol-4(1H)-one], the IC50 at BRD4 (His-Brd4(44-477)) was 45 nM; in assay [1] it was above 24000 nM; at BRD3 (His-Brd3(20-477)) it was 47 nM; in assay [2], 263 nM; at BRD2 (His-Brd2(60-472)), 49 nM. Besides, the GI50 in the assay on MV-4-11 cells amounted to 74.3 nM; in the assay on THP-1 cells, 220 nM; in the assay with K-562 cells it was 562 nM. The “MV-4-11 TGI” value with MV-4-11 cells is 125.5 nM. For the same compound, in the assay with THP-1 cells, the “THP-1 TGI” value was determined as 370 nM. Further, the “K-562 TGI” value in the assay on K-562 cells is above 10000 nM.
For the compound `Cc1cc(N2C(=O)c3nc(C)n(C(C)C)c3C2c2ccc(Cl)cc2)cc2c1nnn2C` (racemic) [Example 2, 6-(4-chlorophenyl)-5-(3,7-dimethyl-3H-benzo[d][1,2,3]triazol-5-yl)-1-isopropyl-2-methyl-5,6-dihydropyrrolo[3,4-d]imidazol-4(1H)-one], the IC50 stood at 20 nM on BRD4 (His-Brd4(44-477)); 8600 nM in assay [1]; 15 nM at BRD3 (His-Brd3(20-477)); 14.5 nM in assay [2]; 33 nM at BRD2 (His-Brd2(60-472)). In addition, the concentration for 50% growth inhibition (GI50) in the assay on MV-4-11 cells amounted to 13.8 nM; with THP-1 cells it was 23.4 nM; in the assay on K-562 cells, 95.9 nM. For the same compound, the “MV-4-11 TGI” value in the assay with MV-4-11 cells is 28.65 nM. In the assay on THP-1 cells, the “THP-1 TGI” value was 40.95 nM. Besides, in the assay with K-562 cells, the “K-562 TGI” value is above 10000 nM.
For the compound `Cc1cc(N2C(=O)c3nc(C4=CCCN(C)C4)n(C(C)C)c3C2c2ccc(Cl)cc2)cn2c(C)nnc12` (stereo not drawn) [Example 12, 6-(4-chlorophenyl)-5-(3,8-dimethyl-[1,2,4]triazolo[4,3-a]pyridin-6-yl)-1-isopropyl-2-(1-methyl-1,2,5,6-tetrahydropyridin-3-yl)-5,6-dihydropyrrolo[3,4-d]imidazol-4(1H)-one], the IC50 came out at 20 nM on BRD4 (His-Brd4(44-477)); 8900 nM in assay [1]; 21 nM on BRD3 (His-Brd3(20-477)); 374 nM in assay [2]; 43 nM at BRD2 (His-Brd2(60-472)). For the same compound, the concentration for 50% growth inhibition (GI50) was 42.2 nM with MV-4-11 cells, 264 nM in the assay on THP-1 cells and 1040 nM with K-562 cells. The “MV-4-11 TGI” value in the assay on MV-4-11 cells is 78.45 nM. The “THP-1 TGI” value with THP-1 cells is 715 nM. Besides, the “K-562 TGI” value in the assay with K-562 cells was above 10000 nM.
As for `COc1cc(N2C(=O)c3nc(C4CC4)n(C)c3C2c2ccc(Cl)cc2)cn2c(C)nnc12` (stereo not drawn) [Example 56, 6-(4-chlorophenyl)-2-cyclopropyl-5-(8-methoxy-3-methyl-[1,2,4]triazolo[4,3-a]pyridin-6-yl)-1-methyl-5,6-dihydropyrrolo[3,4-d]imidazol-4(1H)-one], the IC50 is 130 nM at BRD4 (His-Brd4(44-477)); above 37000 nM in assay [1]; 210 nM at BRD3 (His-Brd3(20-477)); 1210 nM in assay [2]; 290 nM at BRD2 (His-Brd2(60-472)). In addition, the 50% growth inhibitory concentration (GI50) was 816 nM in the assay on MV-4-11 cells, 1240 nM in the assay on THP-1 cells and 3230 nM in the assay on K-562 cells. Also, in the assay with MV-4-11 cells, the “MV-4-11 TGI” value is 1340 nM. Moreover, in the assay on THP-1 cells, the “THP-1 TGI” value was 3670 nM. Further, the “K-562 TGI” value with K-562 cells was above 10000 nM.
